Reference: PubChem BioAssay (NCI)
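GI50 marks 50% less growth. The concentration for full growth arrest is given as TGI.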

Key:
Test in all cases: growth of human tumour cells (NCI), 384-well format
NCI-H226 lung = tested on: NCI-H226 lung
MCF7 breast = tested on: MCF7 breast
NCI-H522 lung = tested on: NCI-H522 lung
U251 glioblastoma = tested on: U251 glioblastoma
SF-539 CNS = tested on: SF-539 CNS
MDA-MB-231 breast = tested on: MDA-MB-231 breast
MOLT-4 leukemia = tested on: MOLT-4 leukemia
HOP-62 NSCLC = tested on: HOP-62 NSCLC
SW-620 colon = tested on: SW-620 colon
UACC-62 melanoma = tested on: UACC-62 melanoma
A498 renal = tested on: A498 renal
K-562 leukemia = tested on: K-562 leukemia
HCT-116 colon = tested on: HCT-116 colon
MALME-3M melanoma = tested on: MALME-3M melanoma
OVCAR-3 ovarian = tested on: OVCAR-3 ovarian
CCRF-CEM leukemia = tested on: CCRF-CEM leukemia
SF-268 CNS = tested on: SF-268 CNS
HCT-15 colon = tested on: HCT-15 colon
COLO 205 colon = tested on: COLO 205 colon
A549 NSCLC = tested on: A549 NSCLC
MDA-MB-435 melanoma = tested on: MDA-MB-435 melanoma
HS 578T breast = tested on: HS 578T breast
SK-OV-3 ovarian = tested on: SK-OV-3 ovarian
LOX IMVI melanoma = tested on: LOX IMVI melanoma
SK-MEL-5 melanoma = tested on: SK-MEL-5 melanoma
SF-295 CNS = tested on: SF-295 CNS
SN12C renal = tested on: SN12C renal
HOP-92 NSCLC = tested on: HOP-92 NSCLC
DU-145 prostate = tested on: DU-145 prostate
EKVX NSCLC = tested on: EKVX NSCLC
SNB-19 CNS = tested on: SNB-19 CNS
786-0 renal = tested on: 786-0 renal
RPMI-8226 leukemia = tested on: RPMI-8226 leukemia
SNB-75 CNS = tested on: SNB-75 CNS
SK-MEL-2 melanoma = tested on: SK-MEL-2 melanoma
OVCAR-5 ovarian = tested on: OVCAR-5 ovarian
PC-3 prostate = tested on: PC-3 prostate
TK-10 renal = tested on: TK-10 renal
OVCAR-8 ovarian = tested on: OVCAR-8 ovarian
NCI-H322M lung = tested on: NCI-H322M lung
CAKI-1 renal = tested on: CAKI-1 renal
NCI-H460 NSCLC = tested on: NCI-H460 NSCLC
M14 melanoma = tested on: M14 melanoma
UO-31 renal = tested on: UO-31 renal
HCC-2998 colon = tested on: HCC-2998 colon
HT29 colon = tested on: HT29 colon
ACHN renal = tested on: ACHN renal

## COc1cc2nc(C)nc(N[C@H](C)c3cc(N)cc(C(F)(F)F)c3)c2cc1O[C@H]1CCOC1
NCI-H226 lung
  GI50: 3.24 µM
  TGI: 19.1 µM
MCF7 breast
  GI50: 11.3 µM
  TGI: 23.5 µM
NCI-H522 lung
  GI50: 2.34 µM
  TGI: 19.4 µM
U251 glioblastoma
  GI50: 10.9 µM
  TGI: 22.8 µM
SF-539 CNS
  GI50: 12.7 µM
  TGI: 25.3 µM
MDA-MB-231 breast
  GI50: 13.5 µM
  TGI: 26.6 µM
MOLT-4 leukemia
  GI50: 4.45 µM
  TGI: 17.4 µM
HOP-62 NSCLC
  GI50: 6.98 µM
  TGI: 20.1 µM
SW-620 colon
  GI50: 14.1 µM
  TGI: 27.2 µM
UACC-62 melanoma
  GI50: 13.4 µM
  TGI: 26.2 µM
A498 renal
  GI50: 8.87 µM
  TGI: 21.3 µM
K-562 leukemia
  GI50: 0.0364 µM
  TGI: 12.5 µM
HCT-116 colon
  GI50: 10.5 µM
  TGI: 22.4 µM
MALME-3M melanoma
  GI50: 8.63 µM
  TGI: 21.1 µM
OVCAR-3 ovarian
  GI50: 6.28 µM
  TGI: 20.1 µM
CCRF-CEM leukemia
  GI50: 9.35 µM
  TGI: 21.3 µM
SF-268 CNS
  GI50: 13.5 µM
  TGI: 26.3 µM
HCT-15 colon
  GI50: 11.6 µM
  TGI: 23.9 µM
COLO 205 colon
  GI50: 14 µM
  TGI: 27.1 µM
A549 NSCLC
  GI50: 14.5 µM
  TGI: 27.8 µM
MDA-MB-435 melanoma
  GI50: 14.5 µM
  TGI: 27.6 µM
HS 578T breast
  GI50: 2.1 µM
  TGI: 15.9 µM
SK-OV-3 ovarian
  GI50: 12.5 µM
  TGI: 25.1 µM
LOX IMVI melanoma
  GI50: 13.4 µM
  TGI: 26.3 µM
SK-MEL-5 melanoma
  GI50: 3.15 µM
  TGI: 17.1 µM
SF-295 CNS
  GI50: 12.8 µM
  TGI: 25.4 µM
SN12C renal
  GI50: 2.86 µM
  TGI: 18.2 µM
HOP-92 NSCLC
  GI50: 0.0895 µM
  TGI: 5.19 µM
DU-145 prostate
  GI50: 14.6 µM
  TGI: 27.9 µM
EKVX NSCLC
  GI50: 2.73 µM
  TGI: 16.2 µM
SNB-19 CNS
  GI50: 12.5 µM
  TGI: 25.1 µM
786-0 renal
  GI50: 11.8 µM
  TGI: 24.2 µM
RPMI-8226 leukemia
  GI50: 2.13 µM
  TGI: 13.2 µM
SNB-75 CNS
  GI50: 6.26 µM
  TGI: 20 µM
SK-MEL-2 melanoma
  GI50: 11.1 µM
  TGI: 23.1 µM
OVCAR-5 ovarian
  GI50: 11 µM
  TGI: 23.1 µM
PC-3 prostate
  GI50: 11 µM
  TGI: 23.1 µM
TK-10 renal
  GI50: 10.9 µM
  TGI: 22.9 µM
OVCAR-8 ovarian
  GI50: 12.7 µM
  TGI: 25.3 µM
NCI-H322M lung
  GI50: 11.1 µM
  TGI: 23.1 µM
CAKI-1 renal
  GI50: 1.97 µM
  TGI: 17 µM
NCI-H460 NSCLC
  GI50: 12 µM
  TGI: 24.6 µM
M14 melanoma
  GI50: 11.7 µM
  TGI: 23.9 µM
UO-31 renal
  GI50: 12.2 µM
  TGI: 24.7 µM
HCC-2998 colon
  GI50: 3.6 µM
  TGI: 15.9 µM
HT29 colon
  GI50: 4.69 µM
  TGI: 16.2 µM
ACHN renal
  GI50: 13.8 µM
  TGI: 26.7 µM
